Structures are written as SMILES. pIC50: −log10 of the molar value. Bridge positions count the residues as written; N and C are the ends. Square brackets hold non-standard residues; d marks the D form. Peptide text beside a SMILES is read from it. * marks the point of attachment. ξ: configuration not given here. Phe(3-CF3) = N[C@@H](Cc1cccc(C(F)(F)F)c1)C(=O)O; Ala(morpholin-4-yl) = N[C@@H](CN1CCOCC1)C(=O)O; Phe(4-COOH) = N[C@@H](Cc1ccc(C(=O)O)cc1)C(=O)O; Bip = N[C@@H](Cc1ccc(-c2ccccc2)cc1)C(=O)O; Phe(3-Me) = Cc1cccc(C[C@H](N)C(=O)O)c1; Phe(4-F) = N[C@@H](Cc1ccc(F)cc1)C(=O)O; NH(CH2)12COOH = O=C(O)CCCCCCCCCCCCN*; Val(3-OH) = CC(C)(O)[C@H](N)C(=O)O; Cha = N[C@@H](CC1CCCCC1)C(=O)O; Thr(3ξ) = CC(O)[C@H](N)C(=O)O; dDab = NCC[C@@H](N)C(=O)O; Carboxymethyl = O=C(O)C*; Nle = CCCC[C@H](N)C(=O)O; Orn = NCCC[C@H](N)C(=O)O; Aun = NCCCCCCCCCCC(=O)O; Dab = NCC[C@H](N)C(=O)O; AEEA = NCCOCCOCC(=O)O

Data on eight compounds can be found in US20260022142A1, “MACROCYCLIC IMMUNOMODULATORS” (Bristol-Myers Squibb Company, priority 2022, published 2026).

T1 sequence (Q15116 25-288): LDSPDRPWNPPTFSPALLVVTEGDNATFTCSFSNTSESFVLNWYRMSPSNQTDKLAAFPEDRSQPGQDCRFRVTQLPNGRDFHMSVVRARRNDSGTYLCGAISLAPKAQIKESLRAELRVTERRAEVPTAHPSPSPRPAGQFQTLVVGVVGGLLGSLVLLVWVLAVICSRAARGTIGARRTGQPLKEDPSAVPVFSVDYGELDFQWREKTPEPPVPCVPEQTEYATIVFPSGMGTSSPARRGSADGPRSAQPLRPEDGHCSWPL

The experiment addresses T1, PD-1/PD-L1 interaction (PE-labeled human PD-L1-Ig binding to Jurkat cell line over-expressing human PD-1) (Homo sapiens, UniProt Q15116).
T1 construct: expressed in transfected cells; host or cells: Jurkat
Description: Jurkat-PD-1 Cell Binding High-Content Screening Assay (CBA). The class given is cell-based. The conditions noted are these: Jurkat cell line over-expressing human PD-1; PE-labeled PD-L1-Ig 20 nM final; read-out: Jurkat hPD1-PDL1 IC50. The method, boiled down:
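First, compound is added to PD-1-expressing Jurkat cells in serum-containing DMEM and left 2 h at 37° C. Next, PE-conjugated PD-L1-Ig is introduced at 20 nM final concentration for 1 hour. Finally, cells are fixed in 4% paraformaldehyde with Hoechst 33342, washed and imaged.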
By pIC50 is commonly meant the negative decadic logarithm of the IC50, by convention in mol/L. As to `Cc1cccc(C[C@@H]2NC(=O)[C@H](CC(=O)O)NC(=O)[C@H](Cc3ccc(OCC(=O)O)cc3)NC(=O)[C@H](Cc3ccc(F)cc3)NC(=O)CSC[C@@H](C(=O)N[C@@H](CCN)C(=O)NCCOCCOCC(=O)NCCOCCOCC(=O)NCCCCCCCCCCCCC(=O)O)NC(=O)[C@H](CO)NC(=O)[C@H](C(C)(C)O)NC(=O)[C@H](CC3CCCCC3)NC(=O)[C@H](Cc3cnc[nH]3)NC(=O)[C@@H](CC(C)C)NC(=O)[C@H](CCCN)NC(=O)[C@H](Cc3ccc(OCC(=O)O)cc3)NC(=O)[C@H](Cc3ccc(-c4ccccc4)cc3)NC(=O)[C@H](Cc3ccc(OCC(=O)O)cc3)NC2=O)c1` [Compound 3817] ({CH2CO}-[Phe(4-F)]Y(Carboxymethyl)D[Phe(3-Me)]Y(Carboxymethyl)[Bip]Y(Carboxymethyl)[Orn][dL]H[Cha][Val(3-OH)]SC[Dab][AEEA][AEEA]-{NH(CH2)12COOH}; thioether N-14), the pIC50 is 7.24. As for `CC(C)C[C@H]1NC(=O)[C@H](CCCN)NC(=O)[C@H](Cc2ccc(OCC(=O)O)cc2)NC(=O)[C@H](Cc2ccc(-c3ccccc3)cc2)NC(=O)[C@H](Cc2ccc(OCC(=O)O)cc2)NC(=O)[C@H](Cc2cccc(C(F)(F)F)c2)NC(=O)[C@H](CC(=O)O)NC(=O)[C@H](Cc2ccc(OCC(=O)O)cc2)NC(=O)[C@H](C(C)O)NC(=O)CSC[C@@H](C(=O)N[C@@H](CCN)C(=O)NCCCCCCCCCCC(=O)O)NC(=O)[C@H](CO)NC(=O)[C@H](C(C)(C)O)NC(=O)[C@H](CC2CCCCC2)NC(=O)[C@H](CCN)NC1=O` (stereo partly drawn) [Compound 3818] ({CH2CO}-[Thr(3ξ)]Y(Carboxymethyl)D[Phe(3-CF3)]Y(Carboxymethyl)[Bip]Y(Carboxymethyl)[Orn][dL][Dab][Cha][Val(3-OH)]SC[Dab][Aun]-OH; thioether N-14), the figure is 8.41; as for `CC(C)C[C@H]1NC(=O)[C@H](CCCN)NC(=O)[C@H](Cc2ccc(OCC(=O)O)cc2)NC(=O)[C@H](Cc2ccc(-c3ccccc3)cc2)NC(=O)[C@H](Cc2ccc(OCC(=O)O)cc2)NC(=O)[C@H](Cc2cccc(C(F)(F)F)c2)NC(=O)[C@H](CC(=O)O)NC(=O)[C@H](Cc2ccc(OCC(=O)O)cc2)NC(=O)[C@H](CCN)NC(=O)CSC[C@@H](C(=O)N[C@@H](CCN)C(=O)NCCCCCCCCCCC(=O)O)NC(=O)[C@H](C(C)O)NC(=O)[C@H](C(C)C)NC(=O)[C@H](CC2CCCCC2)NC(=O)[C@H](CCN)NC1=O` (stereo partly drawn) [Compound 3820] ({CH2CO}-[Dab]Y(Carboxymethyl)D[Phe(3-CF3)]Y(Carboxymethyl)[Bip]Y(Carboxymethyl)[Orn][dL][Dab][Cha]V[Thr(3ξ)]C[Dab][Aun]-OH; thioether N-14), 8.17; as for `CC(C)C[C@H]1NC(=O)[C@H](Cc2cnc[nH]2)NC(=O)[C@H](Cc2ccc(OCC(=O)O)cc2)NC(=O)[C@H](Cc2ccc(-c3ccccc3)cc2)NC(=O)[C@H](Cc2ccc(C(=O)O)cc2)NC(=O)[C@H](Cc2cccc(C(F)(F)F)c2)NC(=O)[C@H](CC(=O)O)NC(=O)[C@H](Cc2ccc(OCC(=O)O)cc2)NC(=O)[C@H](C(C)O)NC(=O)CSC[C@@H](C(=O)N[C@@H](CCN)C(=O)NCCCCCCCCCCC(=O)O)NC(=O)[C@H](C(C)O)NC(=O)[C@H](C(C)C)NC(=O)[C@H](CC2CCCCC2)NC(=O)[C@H](CCN)NC1=O` (stereo partly drawn) [Compound 3821] ({CH2CO}-[Thr(3ξ)]Y(Carboxymethyl)D[Phe(3-CF3)][Phe(4-COOH)][Bip]Y(Carboxymethyl)H[dL][Dab][Cha]V[Thr(3ξ)]C[Dab][Aun]-OH; thioether N-14), 8.40.

Consider `CCCC[C@@H]1NC(=O)[C@H](C(C)C)NC(=O)[C@H](CC2CCCCC2)NC(=O)[C@H](CCN)NC(=O)[C@@H](CC(C)C)NC(=O)[C@H](CCCN)NC(=O)[C@H](Cc2ccc(OCC(=O)O)cc2)NC(=O)[C@H](Cc2ccc(-c3ccccc3)cc2)NC(=O)[C@H](Cc2ccc(OCC(=O)O)cc2)NC(=O)[C@H](Cc2cccc(C(F)(F)F)c2)NC(=O)[C@H](CC(=O)O)NC(=O)[C@H](Cc2ccc(C(=O)O)cc2)NC(=O)[C@H](CCN)NC(=O)CSC[C@@H](C(=O)N[C@@H](CCN)C(=O)NCCCCCCCCCCC(=O)O)NC1=O` [Compound 3825] ({CH2CO}-[Dab][Phe(4-COOH)]D[Phe(3-CF3)]Y(Carboxymethyl)[Bip]Y(Carboxymethyl)[Orn][dL][Dab][Cha]V[Nle]C[Dab][Aun]-OH; thioether N-14), for which the pIC50 was 7.71.

With `CC(C)C[C@H]1NC(=O)[C@H](CCCN)NC(=O)[C@H](Cc2ccc(OCC(=O)O)cc2)NC(=O)[C@H](Cc2ccc(-c3ccccc3)cc2)NC(=O)[C@H](Cc2ccc(OCC(=O)O)cc2)NC(=O)[C@H](Cc2cccc(C(F)(F)F)c2)NC(=O)[C@H](CC(=O)O)NC(=O)[C@H](Cc2ccc(OCC(=O)O)cc2)NC(=O)[C@H](CC2CCCCC2)NC(=O)CSC[C@@H](C(=O)N[C@H](CCN)C(=O)NCCOCCOCC(=O)NCCCCCCCCCCCCC(=O)O)NC(=O)[C@H](CC(=O)O)NC(=O)[C@H](C(C)C)NC(=O)[C@H](CC2CCCCC2)NC(=O)[C@H](CCN)NC1=O` [Compound 3826] ({CH2CO}-[Cha]Y(Carboxymethyl)D[Phe(3-CF3)]Y(Carboxymethyl)[Bip]Y(Carboxymethyl)[Orn][dL][Dab][Cha]VDC[dDab][AEEA]-{NH(CH2)12COOH}; thioether N-14), the negative logarithm of the IC50 (pIC50) is 7.14. As for `CCCC[C@@H]1NC(=O)CSC[C@@H](C(=O)N[C@H](CCN)C(=O)NCCOCCOCC(=O)NCCOCCOCC(=O)NCCCCCCCCCCCCC(=O)O)NC(=O)[C@H](CO)NC(=O)[C@H](C(C)(C)O)NC(=O)[C@H](CC2CCCCC2)NC(=O)[C@H](CCN)NC(=O)[C@@H](CC(C)C)NC(=O)[C@H](CCCN)NC(=O)[C@H](Cc2ccc(C(=O)O)cc2)NC(=O)[C@H](Cc2ccc(-c3ccccc3)cc2)NC(=O)[C@H](Cc2ccc(C(=O)O)cc2)NC(=O)[C@H](Cc2cccc(C(F)(F)F)c2)NC(=O)[C@H](CC(=O)O)NC(=O)[C@H](Cc2ccc(OCC(=O)O)cc2)NC1=O` [Compound 3827] ({CH2CO}-[Nle]Y(Carboxymethyl)D[Phe(3-CF3)][Phe(4-COOH)][Bip][Phe(4-COOH)][Orn][dL][Dab][Cha][Val(3-OH)]SC[dDab][AEEA][AEEA]-{NH(CH2)12COOH}; thioether N-14), the figure is 6.85. Regarding `CC(C)C[C@H]1NC(=O)[C@H](CCCN)NC(=O)[C@H](Cc2ccc(C(=O)O)cc2)NC(=O)[C@H](Cc2ccc(-c3ccccc3)cc2)NC(=O)[C@H](Cc2ccc(C(=O)O)cc2)NC(=O)[C@H](Cc2cccc(C(F)(F)F)c2)NC(=O)[C@H](CC(=O)O)NC(=O)[C@H](Cc2ccc(OCC(=O)O)cc2)NC(=O)[C@H](CN2CCOCC2)NC(=O)CSC[C@@H](C(=O)N[C@H](CCN)C(=O)NCCOCCOCC(=O)NCCOCCOCC(=O)NCCCCCCCCCCCCC(=O)O)NC(=O)[C@H](CO)NC(=O)[C@H](C(C)(C)O)NC(=O)[C@H](CC2CCCCC2)NC(=O)[C@H](CCN)NC1=O` [Compound 3828] ({CH2CO}-[Ala(morpholin-4-yl)]Y(Carboxymethyl)D[Phe(3-CF3)][Phe(4-COOH)][Bip][Phe(4-COOH)][Orn][dL][Dab][Cha][Val(3-OH)]SC[dDab][AEEA][AEEA]-{NH(CH2)12COOH}; thioether N-14), the pIC50 was 6.66.
